The source of these data is patent publication US20250257055A1, “TERTIARY AMIDE DERIVATIVES SUBSTITUTED WITH 4-MEMBERED RING STRUCTURE” (Sumitomo Pharma Co., Ltd., priority 2024, published 2025).

One data set has as its target recombinant p300 (Homo sapiens (Human), UniProt Q09472). Kind of data set: HAT activity inhibition experiment (SensoLyte HAT(p300) Assay Kit). Type of data set: biochemical. As to conditions: recombinant p300, histone H3 peptide, acetyl CoA. Here is the method:
The HAT activity inhibitory ability of HAT inhibitors was evaluated using SensoLyte HAT(p300) Assay Kit (ANASPEC, AS-72172). Specifically, 7.5 μL of the compound of Examples […] diluted with assay buffer was added to 7.5 μL of recombinant p300 solution diluted 10 times with assay buffer, and the mixture was incubated at room temperature for 10 minutes. 7.5 μL of acetyl CoA solution diluted 10 times with assay buffer and 15 μL of histone H3 peptide diluted 10 times with assay buffer were added thereto, and the mixture was incubated at 37° C. for 30 minutes. 37.5 μL of Stop Solution was added to stop the reaction. 75 μL of p300 Developer solution diluted 50 times with assay buffer was added, and the mixture was incubated at room temperature for 30 minutes under light-shielded conditions. The fluorescence at 513 nm when irradiated with 389 nm excitation light was measured using a multiplate reader.

The subject of the next data set is G-401 cells. Kind of data set: Cell proliferation inhibition experiment using G-401 cells. It counts as cell-based. As to conditions: Homo sapiens, 72 h, cultured for 3 days, CellTiter-Glo. Here is the method: G-401 cells (derived from malignant rhabdoid tumor) were obtained from the American Type Culture Collection (ATCC). G-401 cells were cultured in McCoy's 5A medium containing 10% fetal bovine serum and 1% penicillin/streptomycin under conditions of 37° C. and 5% CO2.
500 cells per well were seeded in a 384-well plate. One day after seeding, Examples 1 to 35 were added so that the final concentration of DMSO was 0.1%, and the cells were cultured for 3 days. After the culture was completed, the cell viability was measured using CellTiter-Glo Luminescent Cell Viability Assay (Promega, G7570).
(In general: Cellular ATP, detected with luciferase, serves as a proxy for viable cell number.)

Data set [1] in a line: Membrane permeability test (PAMPA). Type of data set: in vitro ADME. Here is the method:
The membrane permeability of the test compound was tested by parallel artificial membrane permeability assay (PAMPA) as follows. 200 μL of System solution (pION Inc.) containing the test compound and 4 μL of GIT Lipid-0 (pION Inc.) were added to the donor plate. 200 μL of Acceptor Sink Buffer (pION Inc.) was added to the acceptor plate. Both plates were overlapped and incubated at 37° C. for 4 hours, after which the UV of the solutions on the acceptor side and donor side was measured using a UV plate reader (190-500 nm). Compounds with poor UV absorption were measured using LC-MS. The permeability coefficient Pe (10^−6 cm/sec) of the drug was calculated using the following equation.
In general terms: The PAMPA barrier holds no transporters, so it reflects passive diffusion.

[2] abbreviates: pH 5.0, 37° C., read-out: pH 5.0 Pe.
Setting [3] is: pH 7.4, 37° C., read-out: pH 7.4 Pe.

One may read the IC50 as the concentration at which inhibition is half-maximal.

Read-outs that look alike come from different tables or passages of the source.

recombinant p300, sequence (Q09472 whole entry): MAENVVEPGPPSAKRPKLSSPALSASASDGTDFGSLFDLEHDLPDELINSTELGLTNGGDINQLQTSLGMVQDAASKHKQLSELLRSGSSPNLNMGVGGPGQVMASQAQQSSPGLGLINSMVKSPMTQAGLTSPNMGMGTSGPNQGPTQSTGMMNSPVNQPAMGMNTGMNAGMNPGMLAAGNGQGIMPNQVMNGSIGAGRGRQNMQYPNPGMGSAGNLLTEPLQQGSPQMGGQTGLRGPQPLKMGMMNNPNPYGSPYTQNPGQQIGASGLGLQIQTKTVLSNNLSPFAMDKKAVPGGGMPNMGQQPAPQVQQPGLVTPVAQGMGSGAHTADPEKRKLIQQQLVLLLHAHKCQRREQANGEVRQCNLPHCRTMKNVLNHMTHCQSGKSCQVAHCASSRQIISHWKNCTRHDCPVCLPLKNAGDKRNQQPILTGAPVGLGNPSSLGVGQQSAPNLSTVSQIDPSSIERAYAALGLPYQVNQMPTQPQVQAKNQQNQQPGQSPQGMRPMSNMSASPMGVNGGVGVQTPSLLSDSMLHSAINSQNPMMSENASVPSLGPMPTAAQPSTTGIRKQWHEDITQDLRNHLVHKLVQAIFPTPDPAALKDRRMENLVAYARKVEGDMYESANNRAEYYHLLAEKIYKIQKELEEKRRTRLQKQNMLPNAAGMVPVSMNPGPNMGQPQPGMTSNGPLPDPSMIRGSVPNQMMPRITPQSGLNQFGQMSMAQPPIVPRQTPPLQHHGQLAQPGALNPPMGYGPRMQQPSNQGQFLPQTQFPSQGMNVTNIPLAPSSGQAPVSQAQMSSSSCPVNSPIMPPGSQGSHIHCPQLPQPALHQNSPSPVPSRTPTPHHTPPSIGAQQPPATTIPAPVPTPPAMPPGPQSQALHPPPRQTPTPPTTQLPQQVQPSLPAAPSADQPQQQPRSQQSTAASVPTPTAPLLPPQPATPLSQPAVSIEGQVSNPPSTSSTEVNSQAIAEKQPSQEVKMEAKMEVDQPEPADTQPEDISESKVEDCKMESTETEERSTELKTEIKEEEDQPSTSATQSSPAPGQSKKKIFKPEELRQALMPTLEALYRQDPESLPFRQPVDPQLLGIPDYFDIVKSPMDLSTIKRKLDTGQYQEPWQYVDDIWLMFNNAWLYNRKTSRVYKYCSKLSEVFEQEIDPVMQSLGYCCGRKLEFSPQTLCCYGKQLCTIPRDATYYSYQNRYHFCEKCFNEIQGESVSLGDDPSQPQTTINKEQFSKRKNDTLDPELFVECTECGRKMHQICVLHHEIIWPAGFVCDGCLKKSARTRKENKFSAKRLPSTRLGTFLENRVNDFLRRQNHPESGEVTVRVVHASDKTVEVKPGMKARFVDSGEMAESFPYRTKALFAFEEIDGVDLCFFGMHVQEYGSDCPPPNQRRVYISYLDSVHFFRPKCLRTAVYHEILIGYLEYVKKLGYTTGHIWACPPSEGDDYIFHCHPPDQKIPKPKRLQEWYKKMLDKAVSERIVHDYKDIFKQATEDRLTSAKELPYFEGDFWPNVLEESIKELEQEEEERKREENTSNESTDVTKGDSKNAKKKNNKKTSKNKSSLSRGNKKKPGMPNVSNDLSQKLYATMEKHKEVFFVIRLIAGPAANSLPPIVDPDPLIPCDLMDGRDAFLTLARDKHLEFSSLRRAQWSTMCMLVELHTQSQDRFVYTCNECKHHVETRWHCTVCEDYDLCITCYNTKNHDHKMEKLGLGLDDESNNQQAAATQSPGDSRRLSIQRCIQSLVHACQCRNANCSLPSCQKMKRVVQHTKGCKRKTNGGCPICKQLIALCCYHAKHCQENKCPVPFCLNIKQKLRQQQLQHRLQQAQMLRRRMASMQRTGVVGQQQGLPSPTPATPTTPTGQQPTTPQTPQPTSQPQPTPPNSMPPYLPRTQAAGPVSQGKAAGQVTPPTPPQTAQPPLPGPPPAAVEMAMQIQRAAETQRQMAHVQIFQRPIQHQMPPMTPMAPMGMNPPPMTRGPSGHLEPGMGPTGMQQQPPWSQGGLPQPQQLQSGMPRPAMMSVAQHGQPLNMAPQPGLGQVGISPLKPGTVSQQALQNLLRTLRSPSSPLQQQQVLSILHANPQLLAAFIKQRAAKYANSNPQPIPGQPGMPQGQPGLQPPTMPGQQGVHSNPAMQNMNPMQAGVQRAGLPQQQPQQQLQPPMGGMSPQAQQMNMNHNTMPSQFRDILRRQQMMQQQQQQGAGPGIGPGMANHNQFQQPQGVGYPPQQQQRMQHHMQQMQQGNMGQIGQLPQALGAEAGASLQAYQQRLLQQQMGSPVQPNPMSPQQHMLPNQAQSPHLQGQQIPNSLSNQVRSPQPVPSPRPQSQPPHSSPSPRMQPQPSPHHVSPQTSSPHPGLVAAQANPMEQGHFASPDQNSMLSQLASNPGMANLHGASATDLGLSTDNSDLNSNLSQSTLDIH

As to `CN1CC(F)(Cn2cc(-c3ccc4c(c3)CC[C@]43NC(=O)N(CC(=O)N(Cc4ccc(F)cc4)C4(C(F)(F)F)COC4)C3=O)cn2)C1` [Example 2, 2-[(1′S)-5′-{1-[(3-fluoro-1-methylazetidin-3-yl)methyl]-1H-pyrazol-4-yl}-2,5-dioxo-2′,3′-dihydrospiro[imidazolidine-4,1′-inden]-1-yl]-N-[(4-fluorophenyl)methyl]-N-[3-(trifluoromethyl)oxetan-3-yl]acetamide], the IC50 on recombinant p300 was 19 nM; in the data set with G-401 cells it was 89 nM. Moreover, the results for the Papp at 4 h in data set [1] (setting [2]) and in data set [1] (setting [3]) were 7.4 ×10⁻⁶ cm/s and 19 ×10⁻⁶ cm/s, respectively.
On to `CN1CC(N(Cc2ccc(F)cc2)C(=O)CN2C(=O)N[C@]3(C[C@@H](F)c4cc(-c5cnn(C6CCOCC6)c5)ccc43)C2=O)(C(F)(F)F)C1` [Example 19, 2-{(1′S,3′R)-3′-fluoro-5′-[1-(oxan-4-yl)-1H-pyrazol-4-yl]-2,5-dioxo-2′,3′-dihydrospiro[imidazolidine-4,1′-inden]-1-yl}-N-[(4-fluorophenyl)methyl]-N-[1-methyl-3-(trifluoromethyl)azetidin-3-yl]acetamide], for which the values for the IC50 on recombinant p300 and with G-401 cells were 7.2 nM and 24 nM, respectively. Also, the Papp at 4 h was found to be 24.4 ×10⁻⁶ cm/s in data set [1] (setting [2]) and 28.9 ×10⁻⁶ cm/s in data set [1] (setting [3]).
On the same counts, the results for `O=C1N[C@]2(CCc3cc(-c4cnn(C5CN(C6COC6)C5)c4)ccc32)C(=O)N1CC(=O)N(Cc1ccc(F)cn1)C1(C(F)(F)F)COC1` [Example 6, N-[(5-fluoropyridin-2-yl)methyl]-2-[(1′S)-5′-{1-[1-(oxetan-3-yl)azetidin-3-yl]-1H-pyrazol-4-yl}-2,5-dioxo-2′,3′-dihydrospiro[imidazolidine-4,1′-inden]-1-yl]-N-[3-(trifluoromethyl)oxetan-3-yl]acetamide] are 19.8 nM, 391 nM, 3.1 ×10⁻⁶ cm/s and 5.5 ×10⁻⁶ cm/s.
On the same counts, the results for `CN1CC(N(Cc2ccc(C(F)(F)F)cc2)C(=O)CN2C(=O)N[C@]3(C[C@@H](F)c4cc(-c5cnn(C)c5)ccc43)C2=O)(C(F)(F)F)C1` [Example 35, 2-[(1′S,3′R)-3′-fluoro-5′-(1-methyl-1H-pyrazol-4-yl)-2,5-dioxo-2′,3′-dihydrospiro[imidazolidine-4,1′-inden]-1-yl]-N-[1-methyl-3-(trifluoromethyl)azetidin-3-yl]-N-{[4-(trifluoromethyl)phenyl]methyl}acetamide] are 5.2 nM, 72 nM, 31.2 ×10⁻⁶ cm/s and 33.7 ×10⁻⁶ cm/s.
For `CN1CC(N(Cc2ccc(F)cn2)C(=O)CN2C(=O)N[C@]3(C[C@@H](F)c4cc(-c5cnn(C(C)(C)CO)c5)ccc43)C2=O)(C(F)(F)F)C1` [Example 27, 2-{(1′S,3′R)-3′-fluoro-5′-[1-(1-hydroxy-2-methylpropan-2-yl)-1H-pyrazol-4-yl]-2,5-dioxo-2′,3′-dihydrospiro[imidazolidine-4,1′-inden]-1-yl}-N-[(5-fluoropyridin-2-yl)methyl]-N-[1-methyl-3-(trifluoromethyl)azetidin-3-yl]acetamide], the figures for the IC50 on recombinant p300 and in the data set with G-401 cells were 6.8 nM and 22 nM, respectively. Besides, the Papp at 4 h amounted to 0.6 ×10⁻⁶ cm/s in data set [1] (setting [2]) and 3.5 ×10⁻⁶ cm/s in data set [1] (setting [3]).
On to `CN1CC(N(Cc2ccc(F)cc2)C(=O)CN2C(=O)N[C@@]3(C[C@H](F)c4cc(-c5cnn(C)c5)c(F)cc43)C2=O)(C(F)(F)F)C1` [Example 28, 2-[(1′R,3'S)-3′,6′-difluoro-5′-(1-methyl-1H-pyrazol-4-yl)-2,5-dioxo-2′,3′-dihydrospiro[imidazolidine-4,1′-inden]-1-yl]-N-[(4-fluorophenyl)methyl]-N-[1-methyl-3-(trifluoromethyl)azetidin-3-yl]acetamide], for which the Papp at 4 h turned out to be 25.7 ×10⁻⁶ cm/s in data set [1] (setting [2]) and 30 ×10⁻⁶ cm/s in data set [1] (setting [3]).
`CN1CC(N(Cc2ccc(F)cc2)C(=O)CN2C(=O)N[C@]3(C[C@@H](F)c4cc(-c5cnn(C)c5F)ccc43)C2=O)(C(F)(F)F)C1` [Example 15, 2-[(1′S,3′R)-3′-fluoro-5′-(5-fluoro-1-methyl-1H-pyrazol-4-yl)-2,5-dioxo-2′,3′-dihydrospiro[imidazolidine-4,1′-inden]-1-yl]-N-[(4-fluorophenyl)methyl]-N-[1-methyl-3-(trifluoromethyl)azetidin-3-yl]acetamide]: the figures for the IC50 at recombinant p300 and in the data set on G-401 cells were 6.1 nM and 33 nM, respectively. In addition, the values for the Papp at 4 h in data set [1] (setting [2]) and in data set [1] (setting [3]) were 30 ×10⁻⁶ cm/s and 33.3 ×10⁻⁶ cm/s, respectively.
On the same counts, the results for `CN1CC(N(Cc2ccc(F)cc2)C(=O)CN2C(=O)N[C@]3(CCc4cc(-c5cnn(C(C)(C)C#N)c5)ccc43)C2=O)(C(F)(F)F)C1` [Example 13, 2-{(1′S)-5′-[1-(2-cyanopropan-2-yl)-1H-pyrazol-4-yl]-2,5-dioxo-2′,3′-dihydrospiro[imidazolidine-4,1′-inden]-1-yl}-N-[(4-fluorophenyl)methyl]-N-[1-methyl-3-(trifluoromethyl)azetidin-3-yl]acetamide] are 5.2 nM, 20 nM, 26.2 ×10⁻⁶ cm/s and 26.9 ×10⁻⁶ cm/s.
The like results for `CN(C)C1(Cn2cc(-c3ccc4c(c3)[C@H](F)C[C@]43NC(=O)N(CC(=O)N(Cc4ccc(F)cc4)C4(C(F)(F)F)COC4)C3=O)cn2)COC1` [Example 22, 2-[(1′S,3′R)-5′-(1-{[3-(dimethylamino)oxetan-3-yl]methyl}-1H-pyrazol-4-yl)-3′-fluoro-2,5-dioxo-2′,3′-dihydrospiro[imidazolidine-4,1′-inden]-1-yl]-N-[(4-fluorophenyl)methyl]-N-[3-(trifluoromethyl)oxetan-3-yl]acetamide] were, in that order, 11 nM, 68 nM, 21.2 ×10⁻⁶ cm/s and 23 ×10⁻⁶ cm/s.
For `CN1CC(N(Cc2ccc(F)cc2)C(=O)CN2C(=O)N[C@]3(CCc4cc(-c5cnn(C)c5F)ccc43)C2=O)(C(F)(F)F)C1` [Example 16, 2-[(1′S)-5′-(5-fluoro-1-methyl-1H-pyrazol-4-yl)-2,5-dioxo-2′,3′-dihydrospiro[imidazolidine-4,1′-inden]-1-yl]-N-[(4-fluorophenyl)methyl]-N-[1-methyl-3-(trifluoromethyl)azetidin-3-yl]acetamide], the half-maximal inhibitory concentration (IC50) amounted to 53.6 nM on recombinant p300 and 310 nM in the data set with G-401 cells. In addition, the Papp at 4 h in data set [1] (setting [2]) was found to be 29.2 ×10⁻⁶ cm/s; in data set [1] (setting [3]), 32 ×10⁻⁶ cm/s.
The like results for `CN1CCn2ncc(-c3ccc4c(c3)[C@H](F)C[C@]43NC(=O)N(CC(=O)N(Cc4ccc(F)cc4)C4(C(F)(F)F)COC4)C3=O)c2C1` [Example 14, 2-[(1′S, 3′R)-3′-fluoro-5′-(5-methyl-4,5,6,7-tetrahydropyrazolo[1,5-a]pyrazin-3-yl)-2,5-dioxo-2′,3′-dihydrospiro[imidazolidine-4,1′-inden]-1-yl]-N-[(4-fluorophenyl)methyl]-N-[3-(trifluoromethyl)oxetan-3-yl]acetamide] were, in that order, 124 nM, 677 nM, 26.1 ×10⁻⁶ cm/s and 27.9 ×10⁻⁶ cm/s.
On the same counts, the results for `CN1CC(N(Cc2ccc(F)cn2)C(=O)CN2C(=O)N[C@]3(CCc4cc(-c5cnn(C)c5)ccc43)C2=O)(C(F)(F)F)C1` [Example 21, N-[(5-fluoropyridin-2-yl)methyl]-2-[(1′S)-5′-(1-methyl-1H-pyrazol-4-yl)-2,5-dioxo-2′,3′-dihydrospiro[imidazolidine-4,1′-inden]-1-yl]-N-[1-methyl-3-(trifluoromethyl)azetidin-3-yl]acetamide] are 52 nM, 353 nM, 6.2 ×10⁻⁶ cm/s and 21.2 ×10⁻⁶ cm/s.
For `O=C1N[C@]2(CCc3cc(-c4cnn(C5CN(C6COC6)C5)c4)ccc32)C(=O)N1CC(=O)N(Cc1ccc(F)cn1)C1(C(F)(F)F)CC(F)(F)C1` [Example 8, N-[3,3-difluoro-1-(trifluoromethyl)cyclobutyl]-N-[(5-fluoropyridin-2-yl)methyl]-2-[(1′S)-5′-{1-[1-(oxetan-3-yl)azetidin-3-yl]-1H-pyrazol-4-yl}-2,5-dioxo-2′,3′-dihydrospiro[imidazolidine-4,1′-inden]-1-yl]acetamide], in the data set with G-401 cells, 247 nM corresponded to half-maximal inhibition (IC50). In addition, the Papp at 4 h came to 13.5 ×10⁻⁶ cm/s in data set [1] (setting [2]) and 14.3 ×10⁻⁶ cm/s in data set [1] (setting [3]).
